The text below walks through data of patent US11427548B2 (Arvinas Operations, Inc., priority 2015, dated 2022).

One may read the DC50 as the concentration giving 50% degradation. A word on the Dmax: it is the greatest extent of degradation seen.

In the test the target is T1, Androgen Receptor (Homo sapiens, UniProt P10275).
T1 construct: endogenous in cells; host or cells: VCaP cells
T1 sequence (P10275 1-920): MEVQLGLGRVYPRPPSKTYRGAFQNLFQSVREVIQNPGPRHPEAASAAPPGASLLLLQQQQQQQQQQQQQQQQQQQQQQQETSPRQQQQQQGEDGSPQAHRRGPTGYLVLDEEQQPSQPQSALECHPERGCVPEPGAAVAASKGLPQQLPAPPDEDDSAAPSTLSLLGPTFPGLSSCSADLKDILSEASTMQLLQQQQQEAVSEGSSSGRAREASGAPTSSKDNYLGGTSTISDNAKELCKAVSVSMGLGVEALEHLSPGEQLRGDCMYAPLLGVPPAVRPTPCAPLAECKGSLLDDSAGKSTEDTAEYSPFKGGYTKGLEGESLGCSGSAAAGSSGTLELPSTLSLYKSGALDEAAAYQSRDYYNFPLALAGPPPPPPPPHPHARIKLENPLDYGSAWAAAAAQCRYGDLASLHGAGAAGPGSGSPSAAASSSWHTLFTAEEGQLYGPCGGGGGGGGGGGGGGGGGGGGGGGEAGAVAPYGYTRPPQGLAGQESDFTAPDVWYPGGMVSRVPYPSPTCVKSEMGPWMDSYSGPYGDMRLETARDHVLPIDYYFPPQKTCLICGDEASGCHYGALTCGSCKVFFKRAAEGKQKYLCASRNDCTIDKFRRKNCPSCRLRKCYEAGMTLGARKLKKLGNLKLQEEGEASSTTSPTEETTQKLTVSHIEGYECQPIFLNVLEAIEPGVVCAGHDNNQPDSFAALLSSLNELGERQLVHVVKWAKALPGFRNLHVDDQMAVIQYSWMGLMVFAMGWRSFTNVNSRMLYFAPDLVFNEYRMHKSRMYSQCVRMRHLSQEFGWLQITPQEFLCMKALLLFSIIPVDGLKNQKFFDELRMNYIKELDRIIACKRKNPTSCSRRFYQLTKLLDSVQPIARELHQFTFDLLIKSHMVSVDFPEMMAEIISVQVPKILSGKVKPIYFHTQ
In words: Androgen Receptor ELISA assay (PathScan AR ELISA) in VCaP cells: AR degradation, Dmax and DC50. The test is classed as cell-based. To be noted: VCaP cells, Table 36; for DC50: read-out: VCaP DC50; for Dmax: VCaP, read-out: VCaP Dmax (%). Put shortly: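 VCaP cells in phenol red-free RPMI with 5% charcoal-stripped FBS were grown at least 3 days, then given compound as 7 half-log doses in 0.1% DMSO with 0.1 nM R1881 for 24 h. Lysates went into a sandwich AR ELISA with TMB read at 450 nm.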
(In an ELISA, binding on a coated surface is turned into a signal by an enzyme label.)

Molecules are shown by their SMILES.

For the molecule `Cc1ncsc1-c1ccc([C@H](C)NC(=O)C2C[C@@H](O)CN2C(=O)[C@@H](NC(=O)CCCCCCc2ccc(C(=O)N[C@H]3C(C)(C)[C@H](Oc4ccc(C#N)c(Cl)c4)C3(C)C)cc2)C(C)(C)C)cc1` (stereo partly drawn) [Example 749, (2S,4R)-1-((S)-2-(7-(4-(((1r,3r)-3-(3-chloro-4-cyanophenoxy)-2,2,4,4-tetramethylcyclobutyl)carbamoyl)phenyl)heptan-amido)-3,3-dimethylbutanoyl)-4-hydroxy-N-((S)-1-(4-(4-methylthiazol-5-yl)phenyl)ethyl)pyrrolidine-2-carboxamide], the DC50 was less than 50 nM and the Dmax was more than 71%.
With `Cc1ncsc1-c1ccc([C@H](C)NC(=O)[C@@H]2C[C@@H](O)CN2C(=O)[C@H](NC(=O)CN2CCN(CCCc3ccc(C(=O)N[C@H]4C(C)(C)[C@H](Oc5ccc(C#N)c(Cl)c5)C4(C)C)cc3)CC2)C2COC2)cc1` [Example 750, (2S,4R)-1-((R)-2-(4-(4-(3-(4-(((1r,3r)-3-(3-chloro-4-caynophenoxy)-2,2,4,4-tetramethylcyclobutyl)carbamoyl)phenyl)propyl)piperazin-1-yl)acetamido)-2-(oxetan-3-yl)acetyl)-4-hydroxy-N-((S)-1-(4-(4-methylthiazol-5-yl)phenyl)ethyl)pyrrolidine-2-carboxamide], the DC50 is more than 501 nM and the Dmax was less than 25%.
In the case of `Cc1ncsc1-c1ccc([C@H](C)NC(=O)[C@@H]2C[C@@H](O)CN2C(=O)[C@@H](NC(=O)CN2CCN(CCCc3ccc(C(=O)N[C@H]4C(C)(C)[C@H](Oc5ccc(C#N)c(Cl)c5)C4(C)C)cc3)CC2)C2COC2)cc1` [Example 751, (2S,4R)-1-((S)-2-(2-(4-(3-(4-(((1r,3r)-3-(3-chloro-4-cyanophenoxy)-2,2,4,4-tetramethylcyclobutyl)carbamoyl)phenyl)propyl)piperazin-1-yl)acetamido)-2-(oxetan-3-yl)acetyl)-4-hydroxy-N-((S)-1-(4-(4-methylthiazol-5-yl)phenyl)ethyl)pyrrolidine-2-carboxamide], the DC50 is more than 501 nM and the Dmax is less than 25%.
On to `Cc1ncsc1-c1ccc(CNC(=O)[C@@H]2C[C@@H](O)CN2C(=O)[C@H](C(C)C)N2Cc3ccccc3C2=O)c(N2CCN(CCCc3ccc(C(=O)N[C@H]4C(C)(C)[C@H](Oc5ccc(C#N)c(Cl)c5)C4(C)C)cc3)CC2)c1` [Example 752, (2S,4R)-N-(2-(4-(3-(4-(((1r,3r)-3-(3-chloro-4-cyanophenoxy)-2,2,4,4-tetramethylcyclobutyl)carbamoyl)phenyl)propyl)piperazin-1-yl)-4-(4-methylthiazol-5-yl)benzyl)-4-hydroxy-1-((S)-3-methyl-2-(1-oxoisoindolin-2-yl)butanoyl)pyrrolidine-2-carboxamide], for which the DC50 is less than 50 nM and the Dmax fell in the range of 51 to 70%.
The like results for `Cc1ncsc1-c1ccc(CNC(=O)[C@@H]2C[C@@H](O)CN2C(=O)[C@H](C(C)C)N2Cc3ccccc3C2=O)c(N2CCN(CCCc3ccc(C(=O)N[C@H]4C(C)(C)[C@H](Oc5ccc(C#N)c(C(F)(F)F)c5)C4(C)C)cc3)CC2)c1` [Example 753, (2S,4R)-N-(2-(4-(3-(4-(((1r,3r)-3-(4-cyano-3-(trifluoromethyl)phenoxy)-2,2,4,4-tetramethylcyclobutyl)carbamoyl)phenyl)propyl)piperazin-1-yl)-4-(4-methylthiazol-5-yl)benzyl)-4-hydroxy-1-((S)-3-methyl-2-(1-oxoisoindolin-2-yl)butanoyl)pyrrolidine-2-carboxamide] were, in that order, less than 50 nM and 51 to 70%.
On the same counts, the results for `CC(C)[C@@H](C(=O)N1C[C@H](O)C[C@H]1C(=O)NCc1ccc(Cl)cc1N1CCN(CCCc2ccc(C(=O)N[C@H]3C(C)(C)[C@H](Oc4ccc(C#N)c(Cl)c4)C3(C)C)cc2)CC1)N1Cc2ccccc2C1=O` [Example 754, (2S,4R)-N-(4-chloro-2-(4-(3-(4-(((1r,3r)-3-(3-chloro-4-cyanophenoxy)-2,2,4,4-tetramethylcyclobutyl)carbamoyl)phenyl)propyl)piperazin-1-yl)benzyl)-4-hydroxy-1-((S)-3-methyl-2-(1-oxoisoindolin-2-yl)butanoyl)pyrrolidine-2-carboxamide] are more than 501 nM and less than 25%.
The like results for `Cc1ncsc1-c1ccc([C@H](C)NC(=O)[C@@H]2C[C@@H](O)CN2C(=O)[C@@H](NC(=O)CCCCc2ccc(C(=O)N[C@H]3C(C)(C)[C@H](Oc4ccc(C#N)c(Cl)c4)C3(C)C)cc2)C(C)(C)C)cc1` [Example 755, (2S,4R)-1-((S)-2-(5-(4-(((1r,3S)-3-(3-chloro-4-cyanophenoxy)-2,2,4,4-tetramethylcyclobutyl)carbamoyl)phenyl)pentan-amido)-3,3-dimethylbutanoyl)-4-hydroxy-N-((S)-1-(4-(4-methylthiazol-5-yl)phenyl)ethyl)pyrrolidine-2-carboxamide] were, in that order, more than 501 nM and 26 to 50%.
With `Cc1ncsc1-c1ccc([C@H](C)NC(=O)[C@@H]2C[C@@H](O)CN2C(=O)[C@@H](NC(=O)CCCCCCCCc2ccc(C(=O)N[C@H]3C(C)(C)[C@H](Oc4ccc(C#N)c(Cl)c4)C3(C)C)cc2)C(C)(C)C)cc1` [Example 756, (2S,4R)-1-((S)-2-(9-(4-(((1r,3r)-3-(3-chloro-4-cyanophenoxy)-2,2,4,4-tetramethylcyclobutyl)carbamoyl)phenyl)nonan-amido)-3,3-dimethylbutanoyl)-4-hydroxy-N-((S)-1-(4-(4-methylthiazol-5-yl)phenyl)ethyl)pyrrolidine-2-carboxamide], the DC50 was 51 to 500 nM and the Dmax was 51 to 70%.
For the molecule `CC(C)(C)[C@H](NC(=O)COCCN1CCN(c2ccc(C(=O)N[C@H]3C(C)(C)[C@H](Oc4ccc(C#N)c(Cl)c4)C3(C)C)cn2)CC1)C(=O)N1C[C@H](O)C[C@H]1C(=O)NCc1ccc(C2CC2)cc1` [Example 757, N-((1r,3r)-3-(3-chloro-4-cyanophenoxy)-2,2,4,4-tetramethylcyclobutyl)-6-(4-(2-(2-(((S)-1-((2S,4R)-2-((4-cyclopropylbenzyl)car-bamoyl)-4-hydroxypyrrolidin-1-yl)-3,3-dimethyl-1-oxobutan-2-yl)amino)-2-oxoethoxy)ethyl)pipera-zin-1-yl)nicotinamide], the DC50 was more than 501 nM and the Dmax lay in the range of 26 to 50%.
In the case of `CC(C)(C)[C@H](NC(=O)COCCN1CCN(c2ccc(C(=O)N[C@H]3C(C)(C)[C@H](Oc4ccc(C#N)c(Cl)c4)C3(C)C)cn2)CC1)C(=O)N1C[C@H](O)C[C@H]1C(=O)NCc1ccc(C2CCC2)cc1` [Example 758, N-((1r,3r)-3-(3-chloro-4-cyanophenoxy)-2,2,4,4-tetramethylcyclobutyl)-6-(4-(2-(2-(((S)-1-((2S,4R)-2-((4-cyclobutylbenzyl)carbam-oyl)-4-hydroxypyrrolidin-1-yl)-3,3-dimethyl-1-oxobutan-2-yl)amino)-2-oxoethoxy)ethyl)pipera-zin-1-yl)nicotinamide], the DC50 is more than 501 nM and the Dmax is less than 25%.
The like results for `CC(C)(C)[C@H](NC(=O)COCCN1CCN(c2ccc(C(=O)N[C@H]3C(C)(C)[C@H](Oc4ccc(C#N)c(Cl)c4)C3(C)C)cn2)CC1)C(=O)N1C[C@H](O)C[C@H]1C(=O)NCc1ccc(C2CCCC2)cc1` [Example 759, N-((1r,3r)-3-(3-chloro-4-cyanophenoxy)-2,2,4,4-tetramethylcyclobutyl)-6-(4-(2-(2-(((S)-1-((2S,4R)-2-((4-cyclopentylbenzyl)car-bamoyl)-4-hydroxypyrrolidin-1-yl)-3,3-dimethyl-1-oxobutan-2-yl)amino)-2-oxoethoxy)ethyl)pipera-zin-1-yl)nicotinamide] were, in that order, more than 501 nM and less than 25%.
Regarding `CC(C)(C)[C@H](NC(=O)COCCN1CCN(c2ccc(C(=O)N[C@H]3C(C)(C)[C@H](Oc4ccc(C#N)c(Cl)c4)C3(C)C)cn2)CC1)C(=O)N1C[C@H](O)C[C@H]1C(=O)NCc1ccc(C2CCOCC2)cc1` [Example 760, N-((1r,3r)-3-(3-chloro-4-cyanophenxoy)-2,2,4,4-tetramethylcyclobutyl) 6-(4-(2-(2-(((S)-1-((2S,4R)-4-hydroxy-2-((4-(tetrahydro-2H-pyran-4-yl)benzyl)carbamoyl)pyrrolidin-1-yl)-3,3-dimethyl-1-oxobutan-2-yl)amino)-2-oxoethoxy)ethyl)pipera-zin-1-yl)nicotinamide], the DC50 was more than 501 nM and the maximal degradation (Dmax) fell in the range of 26 to 50%.
